Literature values as cited in PMC12284023, “Metabolomic and chemometric profiling of crimson grapes during drying and its impact on antidiabetic activity” (NPJ Science of Food, 2025).
Converted amounts (≈) assume the structure as drawn.

Experiments:
diabetic mice = test system: diabetic mice; parameters: method as in ref 58 = [58]; 58. Ding H Blood glucose-lowering activity of protocatechuic acid is mediated by inhibiting α-glucosidase Food Sci. Hum. Wellness 2024 13 1212 1219 Ding, H. et al. Blood glucose-lowering activity of p; conditions: diabetic mice ref 58
α-glucosidase enzyme = biological target: α-glucosidase enzyme; parameters: method as in ref 56 = [56]; 56. Cásedas G Cyanidin-3-O-glucoside inhibits different enzymes involved in central nervous system pathologies and type-2 diabetes South Afr. J. Bot. 2019 120 241 246 Cásedas, G. et al. Cyanidin-3-O-g; conditions: read-out: IC50 against α-glucosidase enzyme
[1] = test system: streptozotocin-induced diabetic mouse; parameters: method as in ref 57 = [57]; 57. Choi K Choi S-I Park MH Han J-S Cyanidin-3-O-glucoside ameliorates postprandial hyperglycemia in diabetic mice J. Life Sci. 2017 27 32 37 Choi, K., Choi, S.-I., Park, M. H. & Han, J.-S. Cyanidin-3; conditions: oral administration of soluble starch with compound, streptozotocin-induced diabetic mouse ref 57
[2] = test system: streptozotocin-injected rat; parameters: method as in PMID 32446112; conditions: via suppressing uric acid, plasma glucose, triglyceride, total cholesterol, creatinine, IL-6, TNF-α, MCP-1 levels ref 60
[3] = test system: glycation products such as 5-hydroxymethylfurfural, fructosamine, and advanced glycation end products; parameters: method as in ref 58 = [58]; 58. Ding H Blood glucose-lowering activity of protocatechuic acid is mediated by inhibiting α-glucosidase Food Sci. Hum. Wellness 2024 13 1212 1219 Ding, H. et al. Blood glucose-lowering activity of p; conditions: advanced glycation end products ref 58
[4] = test system: streptozotocin-induced diabetic rats; parameters: method as in PMID 35932369; conditions: streptozotocin-induced diabetic rats ref 62
pancreatic lipase = biological target: pancreatic lipase; parameters: method as in PMID 26284613; conditions: in vitro, dose-dependent ref 61

In the case of `O=C(O)c1ccc(O)c(O)c1` [protocatechuic acid], the postprandial hypoglycemic activity (diabetic mice) is listed as “acclaimed postprandial hypoglycemic activity”.

In the case of `OC[C@H]1O[C@@H](Oc2cc3c(O)cc(O)cc3[o+]c2-c2ccc(O)c(O)c2)[C@H](O)[C@@H](O)[C@@H]1O` [Cyanidin-3-O-glucoside], the IC50 (α-glucosidase enzyme) is given as 480 µM and the “levels of postprandial blood glucose” value [1] is given as “significantly decreased”.

In the case of `CC(C)[C@@H](C)/C=C/[C@@H](C)[C@H]1CC[C@H]2C3=CC=C4C[C@@H](O)CC[C@]4(C)[C@H]3CC[C@]12C` [ergosterol, Ergosterol], the diabetic nephropathy [2] is given as “attenuated diabetic nephropathy”.

For `O=C(O)[C@H]1O[C@@H](Oc2c(-c3ccc(O)c(O)c3)oc3cc(O)cc(O)c3c2=O)[C@H](O)[C@@H](O)[C@@H]1O` [quercetin-3-O-glucuronide, Quercetin-3-O-glucuronide], the “suppression of glycation products” value [3] is given as “effectively suppressed”.

For `CC(C)(C)[C@]1(O)CC2OC(=O)CC23C(=O)OC2OC(=O)[C@H](O)C231` (some centres unmarked) [bilobalide, Bilobalide], the anti-retinopathy activity [4] is given as “exhibited anti-retinopathy activity” and the blood glucose levels [4] is given as “decreased blood glucose levels”.

For `O=c1ccc2cc(O[C@@H]3O[C@H](CO)[C@@H](O)[C@H](O)[C@H]3O)c(O)cc2o1` [Esculin], the “IC50 pancreatic lipase inhibition” value (pancreatic lipase) is given as 11.6 ± 0.92 µg/mL (≈ 34.1 µM).
